Results taken from US8178579B2, “Dioxanes and uses thereof” (President and Fellows of Harvard College, priority 2001, dated 2012).

Columns and labels:
[1] = tested on: mouse embryonic stem cells; test: genome-wide transcriptional profiling (U74Av2 chip); assay type: cell-based; conditions: TSA 300 nM, tubacin 2 μM
Method: Gene expression analysis of tubacin, TSA, and DMSO-treated mouse embryonic stem cells were performed according to the Affymetrix protocol using an U74Av2 chip as described in full (K. M. Koeller et al., Chemistry & Biology, 10 (5) (2003) pp. 397-410). Present calls were determined by accompanying software and data analysis, including array normalization and clustering, performed using dChip software [C. Li and W. H. Wong, Genome Biol. 2, 32 (2001); and E. E. Schadt, C. Li, B. Ellis and W. H. Wong, J. Cell Biochem. Suppl. 37, 120 (2001)].

HDAC6F H216A mutant = biological target: T1, HDAC6F H216A mutant (Homo sapiens, UniProt Q9UBN7, H216A); test: in vitro tubulin deacetylase (TDAC) assay, HDAC6F H216A mutant; assay type: biochemical; conditions: acetylated tubulin as substrate
T1 construct: made in house; host or cells: TAg Jurkat cells, transient transfection, anti-FLAG M2 immunoprecipitation
T1 sequence (Q9UBN7 1-1215 H216A): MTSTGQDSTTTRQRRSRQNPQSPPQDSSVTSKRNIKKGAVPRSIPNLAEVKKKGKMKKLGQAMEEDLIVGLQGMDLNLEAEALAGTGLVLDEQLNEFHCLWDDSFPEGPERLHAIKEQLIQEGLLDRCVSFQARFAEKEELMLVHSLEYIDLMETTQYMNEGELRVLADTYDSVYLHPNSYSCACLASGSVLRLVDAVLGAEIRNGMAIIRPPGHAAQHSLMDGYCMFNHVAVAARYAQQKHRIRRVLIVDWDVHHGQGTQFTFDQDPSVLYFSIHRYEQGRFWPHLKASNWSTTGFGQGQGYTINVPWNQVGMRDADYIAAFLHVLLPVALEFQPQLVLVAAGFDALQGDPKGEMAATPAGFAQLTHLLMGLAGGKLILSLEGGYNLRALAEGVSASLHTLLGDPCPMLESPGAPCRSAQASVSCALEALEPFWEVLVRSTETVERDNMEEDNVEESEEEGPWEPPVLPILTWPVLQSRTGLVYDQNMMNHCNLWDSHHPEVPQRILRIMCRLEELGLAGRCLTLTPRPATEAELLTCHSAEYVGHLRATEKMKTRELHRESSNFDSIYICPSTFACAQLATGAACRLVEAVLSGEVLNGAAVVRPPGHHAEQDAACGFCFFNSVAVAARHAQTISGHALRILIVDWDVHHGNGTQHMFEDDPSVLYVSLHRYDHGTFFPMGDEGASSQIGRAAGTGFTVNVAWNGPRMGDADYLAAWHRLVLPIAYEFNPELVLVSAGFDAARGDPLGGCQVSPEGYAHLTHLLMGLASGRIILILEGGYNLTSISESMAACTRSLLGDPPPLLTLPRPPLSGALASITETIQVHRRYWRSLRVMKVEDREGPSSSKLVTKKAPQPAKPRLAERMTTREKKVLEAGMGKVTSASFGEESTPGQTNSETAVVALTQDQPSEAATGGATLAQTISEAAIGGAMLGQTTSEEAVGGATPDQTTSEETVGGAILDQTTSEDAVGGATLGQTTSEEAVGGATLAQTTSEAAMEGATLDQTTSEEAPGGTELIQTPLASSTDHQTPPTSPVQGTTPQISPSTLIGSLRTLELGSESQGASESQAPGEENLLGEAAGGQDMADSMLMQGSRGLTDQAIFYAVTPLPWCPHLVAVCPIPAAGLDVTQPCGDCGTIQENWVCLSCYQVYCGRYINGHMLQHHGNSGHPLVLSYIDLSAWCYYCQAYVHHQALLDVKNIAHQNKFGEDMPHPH
Method: FLAG-tagged HDAC pBJ5 constructs were transiently transfected by electroporation with 5 μg DNA for expression of recombinant proteins (C. M. Grozinger, C. A. Hassig and S. L. Schreiber, Proc. Natl. Acad. Sci. USA, 27, 4868 (1999); and C. A. Hassig et al., Proc. Natl. Acad. Sci. USA 95, 3519 (1998)]. Cells were mock transfected without DNA or with a non-FLAG-tagged pCMV-LacZ construct as a negative control. Forty-eight hours after transfection recombinant proteins were immunoprecipitated using anti-FLAG M2 agarose affinity gel beads as described [C. A. Hassig et al., Proc. Natl. Acad. Sci. USA 95, 3519 (1998)]. Western blotting using anti-acetylated α-tubulin (1:1000) anti-tubulin (1:1000), and anti-acetylated (K9, K14) histone H3 (1:1000) antibodies was performed using standard methods (K. M. Koeller et al., Chemistry & Biology, 10 (5) (2003) pp. 397-410). […]
[^3H]Acetate-incorporated histones were isolated from butyrate-treated HeLa cells as described [J. Taunton, C. […] Immunoprecipitates were incubated with acetylated histones and HDAC activity determined by scintillation counting as described [J. Taunton, C. […] After centrifugation, the supernatant (diluted to 0.4 μg tubulin) and α-FLAG M2 agarose affinity gel beads were analyzed by western blotting with an anti-FLAG M2 antibody (1:1750) to ensure equal protein levels.

Compound	number of genes with altered expression above a 1.3-fold threshold [1]	inhibition of TDAC activity of HDAC6F H216A mutant (HDAC6F H216A mutant)
CC(/C=C/C(=O)NO)=C\[C@@H](C)C(=O)c1ccc(N(C)C)cc1 [TSA, trichostatin A, reference compound]	232 genes	exhibited TDAC activity that was inhibited by tubacin and TSA
O=C(CCCCCCC(=O)Nc1ccc([C@@H]2OC(c3ccc(CO)cc3)C[C@H](CSc3nc(-c4ccccc4)c(-c4ccccc4)o3)O2)cc1)NO (stereo partly shown) [tubacin]	no genes showed a significant alteration in expression	exhibited TDAC activity that was inhibited by tubacin and TSA
